Laboratory results published in publication PMC2697495 (The Journal of pharmacy and pharmacology, 2008).
Marks after values point to notes of the source that are not given here.

How the values were obtained:
UGT1A6 (HEK293) = biological target: T1, UGT1A6 (HEK293) (Homo sapiens, UniProt P19224); assay: 5-HT glucuronidation by recombinant UGT1A6; assay type: biochemical; conditions: for 5-HT glucuronidation, % of the control activity (measured at 0 mM): UGT1A6 (HEK293), 4 mM 5-HT, n=3
T1 sequence (P19224 27-532): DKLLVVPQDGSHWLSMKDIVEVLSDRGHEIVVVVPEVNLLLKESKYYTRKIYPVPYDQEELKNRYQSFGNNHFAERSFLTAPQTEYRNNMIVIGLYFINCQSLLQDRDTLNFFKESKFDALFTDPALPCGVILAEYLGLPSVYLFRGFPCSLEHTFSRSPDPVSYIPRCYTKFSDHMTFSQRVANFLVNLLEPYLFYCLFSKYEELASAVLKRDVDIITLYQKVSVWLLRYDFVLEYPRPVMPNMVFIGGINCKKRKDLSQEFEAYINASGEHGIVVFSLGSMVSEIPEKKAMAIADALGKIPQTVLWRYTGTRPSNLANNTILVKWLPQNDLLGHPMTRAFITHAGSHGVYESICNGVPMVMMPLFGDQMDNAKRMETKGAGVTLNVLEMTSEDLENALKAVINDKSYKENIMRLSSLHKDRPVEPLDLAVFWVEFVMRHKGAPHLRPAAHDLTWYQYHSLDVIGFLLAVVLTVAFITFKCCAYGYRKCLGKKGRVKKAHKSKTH

[1] = system: pooled human liver microsomes (pHLMs); assay: Trifluoperazine glucuronidation by pHLMs; assay type: biochemical; conditions: pHLM, 200 μM trifluoperazine, n=3
[2] = system: pooled human liver microsomes (pHLMs); assay: Codeine glucuronidation by pHLMs; assay type: biochemical; conditions: for Codeine glucuronidation, % of the control activity (measured at 0 mM): pHLM, 1 mM codeine, n=3
UGT2B4 = UGT2B4 (Homo sapiens, UniProt P06133); assay: Codeine glucuronidation by recombinant UGT2B4; assay type: biochemical; conditions: 1 mM codeine, n=3
UGT2B7 [3] = biological target: T2, UGT2B7 (Homo sapiens, UniProt P16662); assay: Codeine glucuronidation by recombinant UGT2B7; assay type: biochemical; conditions: 1 mM codeine, n=3
T2 sequence (P16662 24-529): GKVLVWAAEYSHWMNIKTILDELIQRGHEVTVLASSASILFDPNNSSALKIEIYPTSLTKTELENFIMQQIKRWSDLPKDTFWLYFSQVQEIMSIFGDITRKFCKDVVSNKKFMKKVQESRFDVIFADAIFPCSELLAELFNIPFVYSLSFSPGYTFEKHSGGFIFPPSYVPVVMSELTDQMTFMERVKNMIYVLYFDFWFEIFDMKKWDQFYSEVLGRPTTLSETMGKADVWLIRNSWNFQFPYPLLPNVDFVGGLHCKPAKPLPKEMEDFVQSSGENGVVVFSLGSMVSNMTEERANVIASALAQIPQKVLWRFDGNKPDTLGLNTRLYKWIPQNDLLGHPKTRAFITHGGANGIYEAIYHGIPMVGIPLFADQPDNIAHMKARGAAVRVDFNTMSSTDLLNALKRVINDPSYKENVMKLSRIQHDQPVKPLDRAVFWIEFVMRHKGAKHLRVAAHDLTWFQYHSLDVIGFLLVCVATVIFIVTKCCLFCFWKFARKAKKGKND

UGT2B7 [4] = biological target: T2, UGT2B7; assay: AZT glucuronidation by recombinant UGT2B7; assay type: biochemical; conditions: 500 μM AZT, n=3
[5] = system: pooled human liver microsomes (pHLMs); assay: Estradiol-3 glucuronidation by pHLMs; assay type: biochemical; conditions: for Estradiol-3 glucuronidation, % of the control activity (measured at 0 mM): pHLM, 100 μM estradiol, n=3
UGT1A3 = biological target: T3, UGT1A3 (Homo sapiens, UniProt P35503); assay: Estradiol-17 glucuronidation by recombinant UGT1A3; assay type: biochemical; conditions: 100 μM estradiol, n=3
T3 sequence (P35503 29-534): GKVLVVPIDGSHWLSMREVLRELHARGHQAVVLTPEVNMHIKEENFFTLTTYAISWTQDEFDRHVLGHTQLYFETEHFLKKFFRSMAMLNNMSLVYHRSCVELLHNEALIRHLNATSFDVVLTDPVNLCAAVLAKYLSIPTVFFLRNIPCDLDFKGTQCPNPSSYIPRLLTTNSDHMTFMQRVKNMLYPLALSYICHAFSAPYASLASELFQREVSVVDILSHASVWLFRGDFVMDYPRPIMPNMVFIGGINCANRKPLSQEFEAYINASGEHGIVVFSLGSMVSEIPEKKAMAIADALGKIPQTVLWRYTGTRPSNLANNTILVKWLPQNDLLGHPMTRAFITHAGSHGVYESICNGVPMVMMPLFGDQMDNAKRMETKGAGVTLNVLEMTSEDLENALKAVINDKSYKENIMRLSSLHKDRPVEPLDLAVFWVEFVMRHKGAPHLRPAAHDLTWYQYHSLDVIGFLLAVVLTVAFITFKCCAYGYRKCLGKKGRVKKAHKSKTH

UGT2B7 [6] = biological target: T2, UGT2B7; assay: Estradiol-17 glucuronidation by recombinant UGT2B7; assay type: biochemical; conditions: for Estradiol-17 glucuronidation, % of the control activity (measured at 0 mM): UGT2B7, 100 μM estradiol, n=3
[7] = system: pooled human liver microsomes (pHLMs); assay: e-4-hydroxy-tamoxifen glucuronidation by pHLMs; assay type: biochemical; conditions: 20 mM saccharolactone, pH-adjusted to 7.5
UGT2B15 = UGT2B15 (Homo sapiens, UniProt P54855); assay: e-4-hydroxy-tamoxifen glucuronidation by insect cell-expressed UGT2B15; assay type: biochemical; conditions: 20 mM saccharolactone, pH-adjusted to 7.5
[8] = system: endogenous β-glucuronidase, insect cell expressed UGT2B7; conditions: recombinant UGT2B7 preparation; 10 mM saccharolactone
[9] = system: endogenous β-glucuronidase, insect cell expressed UGT1A1; conditions: recombinant UGT1A1 preparation; 10 mM saccharolactone
HLMs = conditions: 5 mM saccharolactone, ref Kemp et al 2002; cited from earlier work

Chain of UGT2B4 (P06133 24-528): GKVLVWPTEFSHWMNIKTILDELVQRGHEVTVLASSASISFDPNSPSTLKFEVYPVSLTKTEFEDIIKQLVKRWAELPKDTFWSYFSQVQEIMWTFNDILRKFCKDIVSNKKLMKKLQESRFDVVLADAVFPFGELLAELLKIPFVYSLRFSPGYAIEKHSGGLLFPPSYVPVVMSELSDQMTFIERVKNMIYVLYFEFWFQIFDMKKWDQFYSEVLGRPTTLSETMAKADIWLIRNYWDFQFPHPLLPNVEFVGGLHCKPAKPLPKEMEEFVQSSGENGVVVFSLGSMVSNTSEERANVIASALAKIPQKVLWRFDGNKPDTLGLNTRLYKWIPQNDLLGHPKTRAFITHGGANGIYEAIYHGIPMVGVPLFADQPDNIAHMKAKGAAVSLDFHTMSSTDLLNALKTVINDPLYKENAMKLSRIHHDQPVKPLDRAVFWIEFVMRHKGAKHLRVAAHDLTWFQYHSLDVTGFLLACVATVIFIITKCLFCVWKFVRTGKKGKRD
Chain of UGT2B15 (P54855 24-530): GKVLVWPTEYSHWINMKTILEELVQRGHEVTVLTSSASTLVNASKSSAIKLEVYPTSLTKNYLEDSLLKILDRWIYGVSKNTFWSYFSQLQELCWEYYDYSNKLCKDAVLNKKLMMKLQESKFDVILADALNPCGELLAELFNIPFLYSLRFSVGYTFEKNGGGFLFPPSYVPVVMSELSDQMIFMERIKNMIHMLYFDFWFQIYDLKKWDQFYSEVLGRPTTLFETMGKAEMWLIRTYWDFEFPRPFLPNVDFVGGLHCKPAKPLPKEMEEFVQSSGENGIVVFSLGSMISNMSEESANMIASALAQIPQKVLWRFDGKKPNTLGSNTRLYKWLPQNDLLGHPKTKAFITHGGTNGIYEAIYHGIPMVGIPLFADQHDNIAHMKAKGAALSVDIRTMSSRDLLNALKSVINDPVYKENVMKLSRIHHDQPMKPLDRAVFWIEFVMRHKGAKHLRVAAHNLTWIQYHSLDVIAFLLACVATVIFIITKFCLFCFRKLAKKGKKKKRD

## O=C(O)[C@@H](O)[C@H]1OC(=O)[C@H](O)[C@H]1O [saccharolactone, D-saccharic acid 1,4-lactone]
UGT1A6 (HEK293); 5 mM saccharolactone
  5-HT glucuronidation, % of the control activity (measured at 0 mM): 91±6%
UGT1A6 (HEK293); 20 mM saccharolactone
  5-HT glucuronidation, % of the control activity (measured at 0 mM): 90±7%
UGT1A6 (HEK293); UGT1A6 expressed in mammalian (HEK293) cells, saccharolactone up to 20 mM
  effect on 5-hydroxytryptamine glucuronidation: no effect
[1]; 1 mM saccharolactone
  Trifluoperazine glucuronidation, % of the control activity (measured at 0 mM): 98±5%
[1]; 2 mM saccharolactone
  Trifluoperazine glucuronidation, % of the control activity (measured at 0 mM): 101±9%
[1]; 5 mM saccharolactone
  Trifluoperazine glucuronidation, % of the control activity (measured at 0 mM): 95±3%
[1]; 10 mM saccharolactone
  Trifluoperazine glucuronidation, % of the control activity (measured at 0 mM): 93±4%
[1]; 20 mM saccharolactone
  Trifluoperazine glucuronidation, % of the control activity (measured at 0 mM): 97±5%
[2]; 1 mM saccharolactone
  Codeine glucuronidation, % of the control activity (measured at 0 mM): 98±7%
[2]; 2 mM saccharolactone
  Codeine glucuronidation, % of the control activity (measured at 0 mM): 97±4%
[2]; 5 mM saccharolactone
  Codeine glucuronidation, % of the control activity (measured at 0 mM): 91±2 ^a %
[2]; 10 mM saccharolactone
  Codeine glucuronidation, % of the control activity (measured at 0 mM): 95±5%
[2]; 20 mM saccharolactone
  Codeine glucuronidation, % of the control activity (measured at 0 mM): 88±8%
[2]; pHLMs, 5 mM saccharolactone, p<0.05
  inhibition of codeine glucuronidation: 9%
UGT2B4; 5 mM saccharolactone
  Codeine glucuronidation, % of the control activity (measured at 0 mM): 91±4%
UGT2B4; 20 mM saccharolactone
  Codeine glucuronidation, % of the control activity (measured at 0 mM): 88±2%
UGT2B7 [3]; 5 mM saccharolactone
  Codeine glucuronidation, % of the control activity (measured at 0 mM): 90±7%
UGT2B7 [3]; 20 mM saccharolactone
  Codeine glucuronidation, % of the control activity (measured at 0 mM): 90±3%
UGT2B7 [4]; 5 mM saccharolactone
  AZT glucuronidation, % of the control activity (measured at 0 mM): 102±2%
UGT2B7 [4]; 20 mM saccharolactone
  AZT glucuronidation, % of the control activity (measured at 0 mM): 102±8%
[5]; 1 mM saccharolactone
  Estradiol-3 glucuronidation, % of the control activity (measured at 0 mM): 68±5%
[5]; 2 mM saccharolactone
  Estradiol-3 glucuronidation, % of the control activity (measured at 0 mM): 84±1%
[5]; 5 mM saccharolactone
  Estradiol-3 glucuronidation, % of the control activity (measured at 0 mM): 76±9 ^a %
[5]; 10 mM saccharolactone
  Estradiol-3 glucuronidation, % of the control activity (measured at 0 mM): 67±5 ^a %
[5]; 20 mM saccharolactone
  Estradiol-3 glucuronidation, % of the control activity (measured at 0 mM): 67±7 ^a %
[5]; pHLMs, 20 mM saccharolactone, p<0.05
  decrease in estradiol-3 glucuronidation activity: 33%
UGT1A3; 5 mM saccharolactone
  Estradiol-17 glucuronidation, % of the control activity (measured at 0 mM): 90±14%
UGT1A3; 20 mM saccharolactone
  Estradiol-17 glucuronidation, % of the control activity (measured at 0 mM): 98±10%
UGT2B7 [6]; 5 mM saccharolactone
  Estradiol-17 glucuronidation, % of the control activity (measured at 0 mM): 97±2%
UGT2B7 [6]; 20 mM saccharolactone
  Estradiol-17 glucuronidation, % of the control activity (measured at 0 mM): 87±7 ^a %
UGT2B7 [6]; recombinant UGT2B7, 20 mM saccharolactone, p<0.05
  reduction in estradiol-17 glucuronidation activity: 13%
[7]
  decrease in e-4-hydroxy-tamoxifen glucuronidation activity: 17%
UGT2B15
  decrease in e-4-hydroxy-tamoxifen glucuronidation activity: 25%
[8]
  inhibition of estradiol glucuronide hydrolysis: effective in the inhibition of hydrolysis
[9]
  inhibition of estradiol glucuronide hydrolysis: effective in the inhibition of hydrolysis
HLMs
  effect on raloxifene glucuronidation: inhibited
